Experimental data reported in the supplement of paper PMC10307832.

Experiments:
Experiment in all cases: relative viability (nuclei count vs DMSO), 5 days (fraction); higher = more cells survive
LU99A = test system: LU99A
Method in brief: (§1)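 Five library-drug doses in √10 steps were combined with a fixed anchor-drug dose, or a single drug was given alone, by pin tool to lung cancer cell lines in 1536-well plates the day after seeding. Nuclei were stained and counted after 5 days. Relative viability is the nuclei count in treated wells over that in vehicle wells, taken as the median of duplicate plates.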

NCI-H2023 = test system: NCI-H2023
Method in brief: as §1

NCI-H1651 = test system: NCI-H1651
Method in brief: as §1

NCI-H1355 = test system: NCI-H1355
Method in brief: as §1

HARA = test system: HARA
Method in brief: as §1

HCC-15 = test system: HCC-15
Method in brief: as §1

NCI-H2126 = test system: NCI-H2126
Method in brief: as §1

UMC-11 = test system: UMC-11
Method in brief: as §1

NCI-H1993 = test system: NCI-H1993
Method in brief: as §1

PC-14 = test system: PC-14
Method in brief: as §1

NCI-H650 = test system: NCI-H650
Method in brief: as §1

NCI-H1915 = test system: NCI-H1915
Method in brief: as §1

LC-2-ad = test system: LC-2-ad
Method in brief: as §1

EPLC-272H = test system: EPLC-272H
Method in brief: as §1

HOP-62 = test system: HOP-62
Method in brief: as §1

NCI-H2085 = test system: NCI-H2085
Method in brief: as §1

HCC-44 = test system: HCC-44
Method in brief: as §1

NCI-H838 = test system: NCI-H838
Method in brief: as §1

SW 1573 = test system: SW 1573
Method in brief: as §1

COR-L23 = test system: COR-L23
Method in brief: as §1

NCI-H2347 = test system: NCI-H2347
Method in brief: as §1

`Nc1ccn([C@@H]2O[C@H](CO)[C@@H](O)[C@@H]2O)c(=O)n1` [Cytarabine] + CC(=O)Nc1cccc(-n2c(=O)n(C3CC3)c(=O)c3c(Nc4ccc(I)cc4F)n(C)c(=O)c(C)c32)c1 [Trametinib] (partner 0.02 µM) gave a relative viability (LU99A; first compound 0.005 µM) of 0.588, a relative viability (LU99A; first compound 0.01581 µM) of 0.447 and a relative viability (LU99A; first compound 0.05 µM) of 0.497. The relative viability (LU99A; first compound 0.1581 µM) was 0.549, the relative viability (LU99A; first compound 0.5 µM) was 0.544 and the relative viability (NCI-H2023; first compound 0.005 µM) was 0.463. It also gave a relative viability (NCI-H2023; first compound 0.01581 µM) of 0.253, a relative viability (NCI-H2023; first compound 0.05 µM) of 0.169 and a relative viability (NCI-H2023; first compound 0.1581 µM) of 0.104. The relative viability (NCI-H2023; first compound 0.5 µM) was 0.0963, the relative viability (NCI-H1651; first compound 0.005 µM) was 0.846 and the relative viability (NCI-H1651; first compound 0.01581 µM) was 0.858. For the same compound, the relative viability (NCI-H1651; first compound 0.05 µM) was 0.818, the relative viability (NCI-H1651; first compound 0.1581 µM) was 0.591 and the relative viability (NCI-H1651; first compound 0.5 µM) was 0.384. It also gave a relative viability (NCI-H1355; first compound 0.005 µM) of 0.367, a relative viability (NCI-H1355; first compound 0.01581 µM) of 0.38 and a relative viability (NCI-H1355; first compound 0.05 µM) of 0.398. It also gave a relative viability (NCI-H1355; first compound 0.1581 µM) of 0.303, a relative viability (NCI-H1355; first compound 0.5 µM) of 0.282 and a relative viability (HARA; first compound 0.005 µM) of 1.03. The relative viability (HARA; first compound 0.01581 µM) was 0.354, the relative viability (HARA; first compound 0.05 µM) was 0.335 and the relative viability (HARA; first compound 0.1581 µM) was 0.204. For the same compound, the relative viability (HARA; first compound 0.5 µM) was 0.231, the relative viability (HCC-15; first compound 0.005 µM) was 0.396 and the relative viability (HCC-15; first compound 0.01581 µM) was 0.281. For the same compound, the relative viability (HCC-15; first compound 0.05 µM) was 0.381, the relative viability (HCC-15; first compound 0.1581 µM) was 0.362 and the relative viability (HCC-15; first compound 0.5 µM) was 0.357. It also gave a relative viability (NCI-H2126; first compound 0.005 µM) of 0.575, a relative viability (NCI-H2126; first compound 0.01581 µM) of 0.505 and a relative viability (NCI-H2126; first compound 0.05 µM) of 0.448. It also gave a relative viability (NCI-H2126; first compound 0.1581 µM) of 0.349, a relative viability (NCI-H2126; first compound 0.5 µM) of 0.357 and a relative viability (UMC-11; first compound 0.005 µM) of 0.487. For the same compound, the relative viability (UMC-11; first compound 0.01581 µM) was 0.424, the relative viability (UMC-11; first compound 0.05 µM) was 0.373 and the relative viability (UMC-11; first compound 0.1581 µM) was 0.216. For the same compound, the relative viability (UMC-11; first compound 0.5 µM) was 0.183, the relative viability (NCI-H1993; first compound 0.005 µM) was 0.425 and the relative viability (NCI-H1993; first compound 0.01581 µM) was 0.518. The relative viability (NCI-H1993; first compound 0.05 µM) was 0.498, the relative viability (NCI-H1993; first compound 0.1581 µM) was 0.437 and the relative viability (NCI-H1993; first compound 0.5 µM) was 0.432. The relative viability (PC-14; first compound 0.005 µM) was 0.712, the relative viability (PC-14; first compound 0.01581 µM) was 0.669 and the relative viability (PC-14; first compound 0.05 µM) was 0.515. For the same compound, the relative viability (PC-14; first compound 0.1581 µM) was 0.0885, the relative viability (PC-14; first compound 0.5 µM) was 0.079 and the relative viability (NCI-H650; first compound 0.005 µM) was 0.793. For the same compound, the relative viability (NCI-H650; first compound 0.01581 µM) was 0.694, the relative viability (NCI-H650; first compound 0.05 µM) was 0.47 and the relative viability (NCI-H650; first compound 0.1581 µM) was 0.186. For the same compound, the relative viability (NCI-H650; first compound 0.5 µM) was 0.196, the relative viability (NCI-H1915; first compound 0.005 µM) was 0.438 and the relative viability (NCI-H1915; first compound 0.01581 µM) was 0.285. For the same compound, the relative viability (NCI-H1915; first compound 0.05 µM) was 0.251, the relative viability (NCI-H1915; first compound 0.1581 µM) was 0.211 and the relative viability (NCI-H1915; first compound 0.5 µM) was 0.18. For the same compound, the relative viability (LC-2-ad; first compound 0.005 µM) was 0.896, the relative viability (LC-2-ad; first compound 0.01581 µM) was 0.908 and the relative viability (LC-2-ad; first compound 0.05 µM) was 0.893. For the same compound, the relative viability (LC-2-ad; first compound 0.1581 µM) was 0.708, the relative viability (LC-2-ad; first compound 0.5 µM) was 0.47 and the relative viability (EPLC-272H; first compound 0.005 µM) was 0.302. It also gave a relative viability (EPLC-272H; first compound 0.01581 µM) of 0.246, a relative viability (EPLC-272H; first compound 0.05 µM) of 0.283 and a relative viability (EPLC-272H; first compound 0.1581 µM) of 0.211. For the same compound, the relative viability (EPLC-272H; first compound 0.5 µM) was 0.22, the relative viability (HOP-62; first compound 0.005 µM) was 0.352 and the relative viability (HOP-62; first compound 0.01581 µM) was 0.327. It also gave a relative viability (HOP-62; first compound 0.05 µM) of 0.261, a relative viability (HOP-62; first compound 0.1581 µM) of 0.23 and a relative viability (HOP-62; first compound 0.5 µM) of 0.144. It also gave a relative viability (NCI-H2085; first compound 0.005 µM) of 0.504, a relative viability (NCI-H2085; first compound 0.01581 µM) of 0.552 and a relative viability (NCI-H2085; first compound 0.05 µM) of 0.5. For the same compound, the relative viability (NCI-H2085; first compound 0.1581 µM) was 0.26, the relative viability (NCI-H2085; first compound 0.5 µM) was 0.39 and the relative viability (HCC-44; first compound 0.005 µM) was 1.08. It also gave a relative viability (HCC-44; first compound 0.01581 µM) of 1.03, a relative viability (HCC-44; first compound 0.05 µM) of 1.08 and a relative viability (HCC-44; first compound 0.1581 µM) of 1.04. The relative viability (HCC-44; first compound 0.5 µM) was 1.01, the relative viability (NCI-H838; first compound 0.005 µM) was 0.724 and the relative viability (NCI-H838; first compound 0.01581 µM) was 0.535. The relative viability (NCI-H838; first compound 0.05 µM) was 0.543, the relative viability (NCI-H838; first compound 0.1581 µM) was 0.274 and the relative viability (NCI-H838; first compound 0.5 µM) was 0.246. The relative viability (SW 1573; first compound 0.005 µM) was 0.509, the relative viability (SW 1573; first compound 0.01581 µM) was 0.482 and the relative viability (SW 1573; first compound 0.05 µM) was 0.415. It also gave a relative viability (SW 1573; first compound 0.1581 µM) of 0.177, a relative viability (SW 1573; first compound 0.5 µM) of 0.0822 and a relative viability (COR-L23; first compound 0.005 µM) of 0.71. The relative viability (COR-L23; first compound 0.01581 µM) was 0.529, the relative viability (COR-L23; first compound 0.05 µM) was 0.546 and the relative viability (COR-L23; first compound 0.1581 µM) was 0.304. The relative viability (COR-L23; first compound 0.5 µM) was 0.203, the relative viability (NCI-H2347; first compound 0.005 µM) was 0.277 and the relative viability (NCI-H2347; first compound 0.01581 µM) was 0.309. For the same compound, the relative viability (NCI-H2347; first compound 0.05 µM) was 0.282, the relative viability (NCI-H2347; first compound 0.1581 µM) was 0.236 and the relative viability (NCI-H2347; first compound 0.5 µM) was 0.257.
